Laboratory results as given in publication PMC12655637, “Design, Synthesis, and Mechanistic Study of Novel Ciprofloxacin/Thiazole Chalcone Hybrids as Potential Anticancer Agents” (Pharmaceuticals, 2025).
Where two headings read alike, the source gives them in different places.

Experiments:
[1] = system: HCT-15; assay: NCI-60 screening, one-dose (10 µM) and five-dose, SRB; assay type: cell-based, human; details: Homo sapiens; 10 μM; HCT-15, Colon Cancer; read-out: Growth percentage
[2] = system: SF-268; assay: as above; assay type: cell-based, human; details: Homo sapiens; 10 μM; SF-268, CNS Cancer; read-out: Growth percentage
[3] = system: MCF7; assay: as above; assay type: cell-based, human; details: Homo sapiens, MCF7, 10 μM; MCF7, Breast Cancer; read-out: Growth percentage
[4] = system: NCI/ADR-RES; assay: as above; assay type: cell-based, human; details: Homo sapiens, 10 μM, Ovarian Cancer, read-out: Growth percentage
[5] = system: COLO 205; assay: as above; assay type: cell-based, human; details: Homo sapiens; 10 μM; COLO 205, Colon Cancer; read-out: Growth percentage
[6] = system: SNB-75; assay: as above; assay type: cell-based, human; details: Homo sapiens; 10 μM; SNB-75, CNS Cancer; read-out: Growth percentage
[7] = system: 60 human cancer cell lines; assay: NCI-60 screening, full panel (mean growth, MID a, ranges over all lines); details: Homo sapiens, read-out: Mean growth percentage
Method: The screening was performed in accordance with the protocols set forth by the Drug Evaluation Department of the National Cancer Institute (NCI), Bethesda, USA, for in vitro anticancer efficacy at a single concentration of 10 µM against a panel of 60 cancer cell lines derived from nine distinct organs (https://dctd.cancer.gov/data-tools-biospecimens/data (accessed on 15 March 2023 and 6 January 2024)) [37].
The log10 GI50, log10 TGI, and log10 LC50 values were subsequently calculated as the averages of the log10 values of the respective individual GI50, TGI, and LC50 measurements. Negative numbers signified the most sensitive cell lines.
One way to measure a compound’s selectivity is to divide its subpanel MID^b (in μM) by the MID^a (in μM), which is the average sensitivity of all cell lines to the test agent.
At the National Cancer Institute (NCI) in Bethesda, USA, researchers examined the anticancer potential of the target compounds under investigation using nine panels of sixty different cell lines obtained from nine different cancers that were housed in the NCI library. Following the protocols laid out by the National Cancer Institute (https://dctd.cancer.gov/data-tools-biospecimens/data (accessed on 15 March 2023 and 6 January 2024)), the screening procedures were carried out [37]. The anticancer screening was carried out at a single dose of 10^−5 M; the results obtained were expressed as growth inhibition (%).
The anti-cancer potential of the tested compounds was evaluated at the National cancer institute (NCI), Bethesda, USA, against 9 panels of 60 various cell lines derived from nine human tumours available usually at NCI library. The procedures for the screening were described in details in NCI website (dttp://www.dtp.nci.nih.gov.) and were done according to NCI protocols. The anticancer screening was carried out at single dose of 10^-5 M. The results obtained as growth inhibition (%).
Cell lines were grown in Roswell Park Memorial Institute medium (RPMI) with 5% fetal bovine serum and 2% μM L-glutamine. Cancer cells are inoculated into 96 well microtiter plates in 100 μL at plating densities ranging from 5000 to 40,000 cells/well depending on the doubling time of individual cell lines. Then microtiter plates are incubated at 37 °C, 5% CO2, 95% air and 100% relative humidity for 24 h prior to the addition of the tested compounds. After 24 h, two plates of each cell line are fixed in situ with trichloroacetic acid (TCA). The tested compounds were dissolved in dimethyl sulfoxide (DMSO) and stored in the freezer prior to use. An aliquot of frozen drug concentrate is diluted to the desired concentration with complete medium containing 50 μg/mL gentamicin.

[8] = system: OVCAR-4; assay: NCI-60 screening, one-dose (10 µM) and five-dose, SRB; assay type: cell-based, human; details: Homo sapiens; 10 μM; OVCAR-4, Ovarian Cancer; read-out: Growth percentage
[9] = system: HCT-116; assay: as above; assay type: cell-based, human; details: Homo sapiens; for activity at 10 µM: HCT-116, 10 μM, HCT-116, Colon Cancer, read-out: Growth percentage
[10] = system: RXF 393; assay: as above; assay type: cell-based; details: Homo sapiens
[11] = system: UACC-62; assay: as above; assay type: cell-based; details: Homo sapiens; 10 μM; UACC-62, Melanoma; read-out: Growth percentage
[12] = system: SK-MEL-2; assay: as above; assay type: cell-based, human; details: Homo sapiens; 10 μM; SK-MEL-2, Melanoma; read-out: Growth percentage
[13] = system: U251; assay: as above; assay type: cell-based, human; details: Homo sapiens, U-251; 10 μM; U251, CNS Cancer; read-out: Growth percentage
[14] = system: HOP-92; assay: as above; assay type: cell-based, human; details: Homo sapiens; 10 μM; HOP-92, Non-Small-Cell Lung Cancer; read-out: Growth percentage
[15] = system: K-562; assay: as above; assay type: cell-based, human; details: Homo sapiens, K562, 10 μM; K-562, Leukemia; read-out: Growth percentage
[16] = system: 786−0; assay: as above; assay type: cell-based, human; details: Homo sapiens; 10 μM; 786−0, Renal Cancer; read-out: Growth percentage
[17] = system: SF-295; assay: as above; assay type: cell-based, human; details: Homo sapiens; 10 μM; SF-295, CNS Cancer; read-out: Growth percentage
[18] = system: CCRF-CEM; assay: as above; assay type: cell-based, human; details: Homo sapiens, 10 μM, Leukemia, read-out: Growth percentage
[19] = system: RPMI-8226; assay: as above; assay type: cell-based, human; details: Homo sapiens, RPMI-8226, 10 μM; RPMI-8226, Leukemia; read-out: Growth percentage
[20] = system: UACC-257; assay: as above; assay type: cell-based, human; details: Homo sapiens; 10 μM; UACC-257, Melanoma; read-out: Growth percentage
[21] = system: SK-MEL-28; assay: as above; assay type: cell-based, human; details: Homo sapiens; 10 μM; SK-MEL-28, Melanoma; read-out: Growth percentage
[22] = system: A549/ATCC; assay: as above; assay type: cell-based, human; details: Homo sapiens, 10 μM, Non-Small-Cell Lung Cancer, read-out: Growth percentage
[23] = system: OVCAR-8; assay: as above; assay type: cell-based, human; details: Homo sapiens; 10 μM; OVCAR-8, Ovarian Cancer; read-out: Growth percentage
[24] = system: NCI-H226; assay: as above; assay type: cell-based, human; details: Homo sapiens; 10 μM; NCI-H226, Non-Small-Cell Lung Cancer; read-out: Growth percentage
[25] = system: SF-539; assay: as above; assay type: cell-based, human; details: Homo sapiens, SF-539, 10 μM; SF-539, CNS Cancer; read-out: Growth percentage
[26] = system: MOLT-4; assay: as above; assay type: cell-based, human; details: Homo sapiens; 10 μM; MOLT-4, Leukemia; read-out: Growth percentage
[27] = 10 μM, RXF 393, Renal Cancer, read-out: Growth percentage

| SMILES | activity at 10 µM [1] [%] | activity at 10 µM [2] [%] | activity at 10 µM [3] [%] | activity at 10 µM [4] [%] | activity at 10 µM [5] [%] | activity at 10 µM [6] [%] | activity at 10 µM [7] [%] | activity at 10 µM [8] [%] | activity at 10 µM [9] [%] | activity at 10 µM [11] [%] | activity at 10 µM [12] [%] | activity at 10 µM [13] [%] | activity at 10 µM [14] [%] | activity at 10 µM [15] [%] | activity at 10 µM [16] [%] | activity at 10 µM [17] [%] | activity at 10 µM [18] [%] | activity at 10 µM [19] [%] | activity at 10 µM [20] [%] | activity at 10 µM [21] [%] | also measured |
| --- | --- | --- | --- | --- | --- | --- | --- | --- | --- | --- | --- | --- | --- | --- | --- | --- | --- | --- | --- | --- | --- |
| Cc1nc(SCC(=O)N2CCN(c3cc4c(cc3F)c(=O)c(C(=O)O)cn4C3CC3)CC2)sc1C(=O)/C=C/c1ccc(N(C)C)cc1 [Compound 4i, (E)-1-Cyclopropyl-7-(4-(2-((5-(3-(4-(dimethylamino)phenyl)acryloyl)-4-methylthiazol-2-yl)thio)acetyl)piperazin-1-yl)-6-fluoro-4-oxo-1,4-dihydroquinoline-3-carboxylic Acid] | 83.2 | 140 | 17.3 | 97.1 | 117 | 104 | 83.9 | 102 | 2.6 | 79.9 | 85.5 | 48 | 91.7 | 61.3 | 59.2 | 91.4 | 90.6 | 4.7 | 108 | 95.9 | activity at 10 µM [10, 27]: 90.5%; activity at 10 µM [22]: 103%; activity at 10 µM [23]: 76.5%; activity at 10 µM [24]: 100%; activity at 10 µM [25]: 74.4%; activity at 10 µM [26]: 89.2% |
| Cc1nc(SCC(=O)N2CCN(c3cc4c(cc3F)c(=O)c(C(=O)O)cn4C3CC3)CC2)sc1C(=O)/C=C/c1ccc(Cl)cc1 [Compound 4c, (E)-7-(4-(2-((5-(3-(4-Chlorophenyl)acryloyl)-4-methylthiazol-2-yl)thio)acetyl)piperazin-1-yl)-1-cyclopropyl-6-fluoro-4-oxo-1,4-dihydroquinoline-3-carboxylic Acid] | 102 | 180 | 52.9 | 98.9 | 107 | 95.6 | 103 | 107 | 61 | 94.9 | 99.4 | 111 | 119 | 93.1 | 96.2 | 102 | 102 | 7.7 | 117 | 100 | IC50 ([9]; colon HCT-116): 340 nM; activity at 10 µM [10, 27]: 109%; activity at 10 µM [22]: 115%; activity at 10 µM [23]: 76.3%; activity at 10 µM [24]: 107%; activity at 10 µM [25]: 97.7%; activity at 10 µM [26]: 103% |
| Cc1nc(SCC(=O)N2CCN(c3cc4c(cc3F)c(=O)c(C(=O)O)cn4C3CC3)CC2)sc1C(=O)/C=C/c1ccc(F)cc1 [Compound 4e, (E)-1-Cyclopropyl-6-fluoro-7-(4-(2-((5-(3-(4-fluorophenyl)acryloyl)-4-methylthiazol-2-yl)thio)acetyl)piperazin-1-yl)-4-oxo-1,4-dihydroquinoline-3-carboxylic Acid] | 96.8 | 111 | 70.6 | 104 | 119 | 103 | 100 | 102 | 51.2 | 99.6 | 104 | 114 | 98 | 98.2 | 88.3 | 98.8 | 104 | 29.1 | 106 | 116 | activity at 10 µM [10, 27]: 95.9%; activity at 10 µM [22]: 104%; activity at 10 µM [23]: 105%; activity at 10 µM [24]: 98.3%; activity at 10 µM [25]: 99%; activity at 10 µM [26]: 105% |
| Cc1nc(SCC(=O)N2CCN(c3cc4c(cc3F)c(=O)c(C(=O)O)cn4C3CC3)CC2)sc1C(=O)/C=C/c1ccc(Br)cc1 [Compound 4f, (E)-7-(4-(2-((5-(3-(4-Bromophenyl)acryloyl)-4-methylthiazol-2-yl)thio)acetyl)piperazin-1-yl)-1-cyclopropyl-6-fluoro-4-oxo-1,4-dihydroquinoline-3-carboxylic Acid] | 106 | 116 | 70.8 | 107 | 112 | 65.7 | 102 | 102 | 94.3 | 105 | 105 | 98.4 | 115 | 96.2 | 93.6 | 108 | 106 | 31.5 | 118 | 114 | activity at 10 µM ([10]; RXF 393, read-out: Growth percentage): 107%; activity at 10 µM [22]: 107%; activity at 10 µM [23]: 75%; activity at 10 µM [24]: 107%; activity at 10 µM [25]: 89.9%; activity at 10 µM [26]: 96.2% |
| Cc1nc(SCC(=O)N2CCN(c3cc4c(cc3F)c(=O)c(C(=O)O)cn4C3CC3)CC2)sc1C(=O)/C=C/c1ccc([N+](=O)[O-])cc1 [Compound 4h, (E)-1-Cyclopropyl-6-fluoro-7-(4-(2-((4-methyl-5-(3-(4-nitrophenyl)acryloyl)thiazol-2-yl)thio)acetyl)piperazin-1-yl)-4-oxo-1,4-dihydroquinoline-3-carboxylic Acid] | 62.3 | 81.1 | 7.2 | 88.8 | 95.9 | 91.2 | 77.6 | 89.2 | 33.8 | 59 | 87.7 | 59.9 | 126 | 28.9 | 87.6 | 116 | 45.7 | 16.3 | 82.6 | 60 | activity at 10 µM [10, 27]: 89.5%; activity at 10 µM [22]: 99.7%; activity at 10 µM [23]: 68.9%; activity at 10 µM [24]: 87.9%; activity at 10 µM [25]: 67.9%; activity at 10 µM [26]: 62.7% |
| COc1ccc(/C=C/C(=O)c2sc(SCC(=O)N3CCN(c4cc5c(cc4F)c(=O)c(C(=O)O)cn5C4CC4)CC3)nc2C)cc1 [Compound 4j, (E)-1-Cyclopropyl-6-fluoro-7-(4-(2-((5-(3-(4-methoxyphenyl)acryloyl)-4-methylthiazol-2-yl)thio)acetyl)piperazin-1-yl)-4-oxo-1,4-dihydroquinoline-3-carboxylic Acid] | 104 | 148 | 93.3 | 109 | 106 | 86.2 | 105 | 101 | 103 | 111 | 104 | 107 | 105 | 98.3 | 88.6 | 101 | 110 | 106 | 114 | 114 | activity at 10 µM [10, 27]: 99.3%; activity at 10 µM [22]: 105%; activity at 10 µM [23]: 94.6%; activity at 10 µM [24]: 102%; activity at 10 µM [25]: 97.5%; activity at 10 µM [26]: 99.7% |
